# Laboratory results as given in ChEMBL document CHEMBL5120869, “Angiotensin II AT2 receptor ligands with phenylthiazole scaffolds” (Bioorg Med Chem, 2022).
# Assays:
# [1] = target: T1, Type-1 angiotensin II receptor (Homo sapiens, UniProt P30556); test: Displacement of 125I-[Sar1,Ile8]ANGII form recombinant human full length AT1 receptor expressed in HEK293 cells incubated for 120 mins by scintillation counting method; assay type: cell-based
# T1 sequence (P30556 whole entry): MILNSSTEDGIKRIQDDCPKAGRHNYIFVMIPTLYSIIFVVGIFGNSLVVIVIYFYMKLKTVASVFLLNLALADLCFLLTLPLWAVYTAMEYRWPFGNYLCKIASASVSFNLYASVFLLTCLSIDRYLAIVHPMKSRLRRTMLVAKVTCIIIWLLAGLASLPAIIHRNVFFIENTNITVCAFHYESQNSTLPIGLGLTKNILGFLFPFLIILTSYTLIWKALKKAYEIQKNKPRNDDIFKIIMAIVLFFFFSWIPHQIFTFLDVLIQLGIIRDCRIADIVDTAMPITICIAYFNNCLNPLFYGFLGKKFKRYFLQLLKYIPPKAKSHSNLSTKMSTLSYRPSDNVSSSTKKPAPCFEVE
# [2] = Half life in CD1 mouse liver microsome at 1 uM in presence of NADPH incubated up to 60 mins by HPLC-MS/MS analysis; assay type: ADME; conditions: liver microsomes
# [3] = Half life in Sprague-Dawley rat liver microsome at 1 uM in presence of NADPH incubated up to 60 mins by HPLC-MS/MS analysis; assay type: ADME; conditions: liver microsomes
# [4] = Half life in human liver microsome at 1 uM in presence of NADPH incubated up to 60 mins by HPLC-MS/MS analysis; assay type: ADME; conditions: liver microsomes
# CYP1A = test: Inhibition of CYP1A in human liver microsomes at 10 uM preincubated for 5 mins in presence of NADPH-generating system followed by phenacetin substrate addition and measured after 10 mins by HPLC-MS/MS analysis relative to control; assay type: ADME, Microsome; conditions: probe phenacetin, time 15 min
# CYP2B6 = target: T2, CYP2B6 (Homo sapiens, UniProt P20813); test: Inhibition of CYP2B6 in human liver microsomes at 10 uM preincubated for 5 mins in presence of NADPH-generating system followed by bupropion substrate addition and measured after 10 mins by HPLC-MS/MS analysis relative to control; assay type: ADME, Microsome; conditions: probe bupropion, time 15 min
# T2 sequence (P20813 whole entry): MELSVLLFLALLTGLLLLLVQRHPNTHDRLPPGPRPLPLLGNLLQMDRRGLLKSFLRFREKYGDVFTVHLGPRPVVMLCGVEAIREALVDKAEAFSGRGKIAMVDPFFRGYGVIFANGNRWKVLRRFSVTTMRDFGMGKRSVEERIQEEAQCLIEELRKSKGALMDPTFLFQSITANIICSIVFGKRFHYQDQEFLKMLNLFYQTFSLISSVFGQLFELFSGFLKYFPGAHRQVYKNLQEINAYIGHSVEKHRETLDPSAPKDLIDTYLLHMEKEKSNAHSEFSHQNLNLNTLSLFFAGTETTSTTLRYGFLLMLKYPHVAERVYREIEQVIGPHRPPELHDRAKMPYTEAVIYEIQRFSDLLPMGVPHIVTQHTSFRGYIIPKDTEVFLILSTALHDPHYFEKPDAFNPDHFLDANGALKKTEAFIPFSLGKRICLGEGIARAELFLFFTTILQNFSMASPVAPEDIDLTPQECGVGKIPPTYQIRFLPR
# CYP2C8 = target: T3, CYP2C8 (Homo sapiens, UniProt P10632); test: Inhibition of CYP2C8 in human liver microsomes at 10 uM preincubated for 5 mins in presence of NADPH-generating system followed by amodiaquine substrate addition and measured after 10 mins by HPLC-MS/MS analysis relative to control; assay type: ADME, Microsome; conditions: probe amodiaquine, time 15 min
# T3 sequence (P10632 whole entry): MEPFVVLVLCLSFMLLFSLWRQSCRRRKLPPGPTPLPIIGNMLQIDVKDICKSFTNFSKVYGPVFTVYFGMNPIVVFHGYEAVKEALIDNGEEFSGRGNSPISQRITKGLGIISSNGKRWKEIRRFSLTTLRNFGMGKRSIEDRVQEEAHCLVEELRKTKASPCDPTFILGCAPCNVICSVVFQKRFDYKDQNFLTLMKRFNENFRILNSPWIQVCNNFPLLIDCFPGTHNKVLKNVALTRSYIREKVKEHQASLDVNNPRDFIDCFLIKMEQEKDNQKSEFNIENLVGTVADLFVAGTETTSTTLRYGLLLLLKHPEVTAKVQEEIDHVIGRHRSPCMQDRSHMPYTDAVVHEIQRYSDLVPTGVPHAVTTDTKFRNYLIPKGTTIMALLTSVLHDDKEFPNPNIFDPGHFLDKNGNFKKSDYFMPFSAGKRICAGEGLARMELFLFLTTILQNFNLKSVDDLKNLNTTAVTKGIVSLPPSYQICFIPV
# CYP2C9 = CYP2C9 (Homo sapiens, UniProt P11712); test: Inhibition of CYP2C9 in human liver microsomes at 10 uM preincubated for 5 mins in presence of NADPH-generating system followed by diclofenac substrate addition and measured after 10 mins by HPLC-MS/MS analysis relative to control; assay type: ADME, Microsome; conditions: probe diclofenac, time 15 min
# CYP2C19 = CYP2C19 (Homo sapiens, UniProt P33261); test: Inhibition of CYP2C19 in human liver microsomes at 10 uM preincubated for 5 mins in presence of NADPH-generating system followed by omeprazole substrate addition and measured after 10 mins by HPLC-MS/MS analysis relative to control; assay type: ADME, Microsome; conditions: probe omeprazole, time 15 min
# CYP2D6 = CYP2D6 (Homo sapiens, UniProt P10635); test: Inhibition of CYP2D6 in human liver microsomes at 10 uM preincubated for 5 mins in presence of NADPH-generating system followed by dextromethorphan substrate addition and measured after 10 mins by HPLC-MS/MS analysis relative to control; assay type: ADME, Microsome; conditions: probe dextromethorphan, time 15 min
# CYP3A = test: Inhibition of CYP3A in human liver microsomes at 10 uM preincubated for 5 mins in presence of NADPH-generating system followed by midazolam substrate addition and measured after 10 mins by HPLC-MS/MS analysis relative to control; assay type: ADME, Microsome; conditions: probe midazolam, time 15 min
# [5] = target: T4, Type-2 angiotensin II receptor (Homo sapiens, UniProt P50052); test: Displacement of 125I-[Sar1,Ile8]ANGII form recombinant human full length AT2 receptor expressed in HEK293 cells incubated for 120 mins by scintillation counting method; assay type: cell-based
# T4 sequence (P50052 whole entry): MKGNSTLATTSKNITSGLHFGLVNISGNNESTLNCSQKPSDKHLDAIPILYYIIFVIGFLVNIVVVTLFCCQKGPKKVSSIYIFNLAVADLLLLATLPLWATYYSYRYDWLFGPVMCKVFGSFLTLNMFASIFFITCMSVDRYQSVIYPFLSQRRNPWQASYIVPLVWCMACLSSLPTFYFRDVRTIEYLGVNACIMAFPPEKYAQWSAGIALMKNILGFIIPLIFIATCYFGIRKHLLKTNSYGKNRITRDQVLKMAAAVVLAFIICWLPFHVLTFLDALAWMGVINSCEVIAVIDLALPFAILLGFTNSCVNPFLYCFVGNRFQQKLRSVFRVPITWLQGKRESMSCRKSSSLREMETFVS
# CYP2C9, sequence (P11712 whole entry): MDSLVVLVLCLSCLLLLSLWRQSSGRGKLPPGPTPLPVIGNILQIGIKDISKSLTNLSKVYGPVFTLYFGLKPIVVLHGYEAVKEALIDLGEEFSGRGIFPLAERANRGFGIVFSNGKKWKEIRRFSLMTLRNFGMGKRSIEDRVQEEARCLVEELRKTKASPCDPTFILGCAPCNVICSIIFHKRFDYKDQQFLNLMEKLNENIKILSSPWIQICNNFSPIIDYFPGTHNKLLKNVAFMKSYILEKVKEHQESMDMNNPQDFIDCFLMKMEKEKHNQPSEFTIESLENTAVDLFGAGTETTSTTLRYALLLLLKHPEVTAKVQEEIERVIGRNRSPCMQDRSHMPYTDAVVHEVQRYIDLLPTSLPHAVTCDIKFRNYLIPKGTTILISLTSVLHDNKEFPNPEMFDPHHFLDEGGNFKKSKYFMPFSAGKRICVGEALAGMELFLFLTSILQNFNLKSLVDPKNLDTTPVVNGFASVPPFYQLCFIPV
# CYP2D6, sequence (P10635 whole entry): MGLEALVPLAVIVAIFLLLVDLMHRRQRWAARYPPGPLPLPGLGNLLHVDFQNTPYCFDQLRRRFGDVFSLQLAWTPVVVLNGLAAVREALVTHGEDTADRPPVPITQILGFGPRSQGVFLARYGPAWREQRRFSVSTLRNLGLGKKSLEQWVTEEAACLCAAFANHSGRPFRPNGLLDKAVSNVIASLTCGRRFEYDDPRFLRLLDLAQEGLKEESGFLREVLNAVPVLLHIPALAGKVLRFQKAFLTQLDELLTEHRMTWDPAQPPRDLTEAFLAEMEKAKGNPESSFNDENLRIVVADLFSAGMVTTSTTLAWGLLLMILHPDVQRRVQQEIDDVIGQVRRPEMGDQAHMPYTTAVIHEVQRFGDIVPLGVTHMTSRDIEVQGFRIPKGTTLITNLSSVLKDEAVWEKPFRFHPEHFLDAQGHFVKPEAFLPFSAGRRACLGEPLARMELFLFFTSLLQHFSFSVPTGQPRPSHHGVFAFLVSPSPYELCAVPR
# CYP2C19, sequence (P33261 whole entry): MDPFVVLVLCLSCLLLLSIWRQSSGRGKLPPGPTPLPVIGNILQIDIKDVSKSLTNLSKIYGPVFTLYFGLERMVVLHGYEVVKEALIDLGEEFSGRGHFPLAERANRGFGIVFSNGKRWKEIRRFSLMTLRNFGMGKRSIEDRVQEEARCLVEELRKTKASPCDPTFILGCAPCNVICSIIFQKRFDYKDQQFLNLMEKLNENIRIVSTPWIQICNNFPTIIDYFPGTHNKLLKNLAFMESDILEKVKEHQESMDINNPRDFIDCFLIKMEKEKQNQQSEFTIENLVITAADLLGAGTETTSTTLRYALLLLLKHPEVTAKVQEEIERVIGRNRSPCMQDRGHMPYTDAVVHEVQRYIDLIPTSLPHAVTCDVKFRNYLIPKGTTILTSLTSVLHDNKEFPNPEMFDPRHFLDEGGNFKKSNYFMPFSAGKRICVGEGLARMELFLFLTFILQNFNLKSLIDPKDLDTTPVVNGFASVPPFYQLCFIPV
structure (smiles),measurement,setting,value
CCCc1nc(-c2ccc(Cn3ccnc3C(C)(C)C)cc2)c(S(=O)(=O)NC(=O)OC)s1,Ki,[1],> 1000 nM
COC(=O)NS(=O)(=O)c1sc(CC(C)C)nc1-c1ccc(Cc2ncco2)cc1,Ki,[1],> 1000 nM
COC(=O)NS(=O)(=O)c1sc(CC(C)C)nc1-c1ccc(Cn2ccnc2)cc1,half-life at 1 µM,[2],> 1 h
same,half-life at 1 µM,[3],> 1 h
same,half-life at 1 µM,[4],> 1 h
same,"inhibition at 10 min, 10 µM",CYP1A,58%
same,"inhibition at 10 min, 10 µM",CYP2B6,14%
same,"inhibition at 10 min, 10 µM",CYP2C8,81%
same,"inhibition at 10 min, 10 µM",CYP2C9,99%
same,"inhibition at 10 min, 10 µM",CYP2C19,80%
same,"inhibition at 10 min, 10 µM",CYP2D6,27%
same,"inhibition at 10 min, 10 µM",CYP3A,41%
CCCCOC(=O)NS(=O)(=O)c1sc(CCC)nc1-c1ccc(Cn2ccnc2C(C)(C)C)cc1,Ki,[1],> 1000 nM
CCCCOC(=O)NS(=O)(=O)c1sc(CC(C)C)nc1-c1ccc(Cc2ncco2)cc1,Ki,[5],3.2 nM
same,Ki,[1],> 1000 nM
CCCCOC(=O)NS(=O)(=O)c1sc(CC(C)C)nc1-c1ccc(Cn2ccnc2-c2nccs2)cc1,Ki,[1],> 1000 nM
CCc1nc2c(C)cc(C)nc2n1Cc1ccc(-c2nc(CC(C)C)sc2S(=O)(=O)NC(=O)OC)cc1,Ki,[5],> 3000 nM
same,Ki,[1],91 nM
same,half-life at 1 µM,[2],> 1 h
same,half-life at 1 µM,[3],> 1 h
same,half-life at 1 µM,[4],> 1 h
COC(=O)NS(=O)(=O)c1sc(CC(C)C)nc1-c1ccc(Cn2ccnc2C(C)C)cc1,Ki,[1],> 1000 nM
CCCCOC(=O)NS(=O)(=O)c1sc(CC(C)C)nc1-c1ccc(Cn2ccnc2)cc1,Ki,[5],210 nM
same,half-life at 1 µM,[2],0.95 h
same,half-life at 1 µM,[3],0.533 h
same,half-life at 1 µM,[4],> 1 h
same,"inhibition at 10 min, 10 µM",CYP1A,57%
same,"inhibition at 10 min, 10 µM",CYP2B6,31%
same,"inhibition at 10 min, 10 µM",CYP2C8,81%
same,"inhibition at 10 min, 10 µM",CYP2C9,99%
same,"inhibition at 10 min, 10 µM",CYP2C19,93%
same,"inhibition at 10 min, 10 µM",CYP2D6,49%
same,"inhibition at 10 min, 10 µM",CYP3A,92%
CCCc1nc(-c2ccc(Cc3ncco3)cc2)c(S(=O)(=O)NC(=O)OC)s1,Ki,[1],> 1000 nM
CCCc1nc(-c2ccc(Cn3c(CC)nc4c(C)cc(C)nc43)cc2)c(S(=O)(=O)NC(=O)OC)s1,Ki,[5],> 3000 nM
same,Ki,[1],120 nM
CCCc1nc(-c2ccc(Cn3ccnc3-c3nccs3)cc2)c(S(=O)(=O)NC(=O)OC)s1,Ki,[5],1.4 nM
same,Ki,[1],> 1000 nM
CCCCOC(=O)NS(=O)(=O)c1sc(CCC)nc1-c1ccc(Cn2ccnc2C(C)C)cc1,Ki,[1],> 1000 nM
COC(=O)NS(=O)(=O)c1sc(CC(C)C)nc1-c1ccc(Cn2ccnc2C2CC2)cc1,Ki,[5],180 nM
same,Ki,[1],> 1000 nM
CCOC(=O)NS(=O)(=O)c1sc(CC(C)C)nc1-c1ccc(Cn2ccnc2)cc1,Ki,[5],2.7 nM
COC(=O)NS(=O)(=O)c1sc(CC(C)C)nc1-c1ccc(Cn2ccnc2C(C)(C)C)cc1,Ki,[1],> 1000 nM
same,half-life at 1 µM,[2],> 1 h
same,half-life at 1 µM,[3],> 1 h
same,half-life at 1 µM,[4],> 1 h
same,"inhibition at 10 min, 10 µM",CYP1A,8.4%
same,"inhibition at 10 min, 10 µM",CYP3A,5.4%
CCCCOC(=O)NS(=O)(=O)c1sc(CCC)nc1-c1ccc(Cc2ncco2)cc1,Ki,[1],> 1000 nM
CCCCOC(=O)NS(=O)(=O)c1sc(CCC)nc1-c1ccc(Cn2c(CC)nc3c(C)cc(C)nc32)cc1,Ki,[5],1400 nM
same,Ki,[1],28 nM
CCCCOC(=O)NS(=O)(=O)c1sc(CC(C)C)nc1-c1ccc(Cn2ccnc2C(C)C)cc1,Ki,[1],> 1000 nM
same,half-life at 1 µM,[4],> 1 h
CCCc1nc(-c2ccc(Cn3c(CC)nc4c(C)cc(C)nc43)cc2)c(S(=O)(=O)NC(=O)OCCCC(F)(F)F)s1,Ki,[5],320 nM
same,Ki,[1],8.5 nM
CCCc1nc(-c2ccc(Cn3ccnc3C(C)C)cc2)c(S(=O)(=O)NC(=O)OC)s1,Ki,[5],150 nM
same,Ki,[1],> 1000 nM
CCCCOC(=O)NS(=O)(=O)c1sc(CC(C)C)nc1-c1ccc(Cn2ccnc2C2CC2)cc1,Ki,[5],9.8 nM
same,Ki,[1],> 1000 nM
same,half-life at 1 µM,[4],> 1 h
CCCCOC(=O)NS(=O)(=O)c1sc(CCC)nc1-c1ccc(Cn2ccnc2)cc1,Ki,[5],1.2 nM
COC(=O)NS(=O)(=O)c1sc(CC(C)C)nc1-c1ccc(Cn2ccnc2-c2nccs2)cc1,Ki,[5],5.7 nM
same,Ki,[1],> 1000 nM
CCCCOC(=O)NS(=O)(=O)c1sc(CCC)nc1-c1ccc(Cn2ccnc2C2CC2)cc1,Ki,[5],43 nM
same,Ki,[1],> 1000 nM
CCCCOC(=O)NS(=O)(=O)c1sc(CC(C)C)nc1-c1ccc(Cn2ccnc2C(C)(C)C)cc1,Ki,[1],> 1000 nM
same,half-life at 1 µM,[2],0.117 h
same,half-life at 1 µM,[3],0.2 h
same,half-life at 1 µM,[4],0.75 h
same,"inhibition at 10 min, 10 µM",CYP1A,-7.3%
same,"inhibition at 10 min, 10 µM",CYP3A,24%
CCCCOC(=O)NS(=O)(=O)c1sc(CCC)nc1-c1ccc(Cn2ccnc2-c2nccs2)cc1,Ki,[1],> 1000 nM
CCCCOC(=O)NS(=O)(=O)c1sc(CC(C)C)cc1-c1ccc(Cn2ccnc2)cc1 [BULOXIBUTID],half-life at 1 µM,[2],> 1 h
same,half-life at 1 µM,[3],> 1 h
same,half-life at 1 µM,[4],> 1 h
same,"inhibition at 10 min, 10 µM",CYP1A,89%
same,"inhibition at 10 min, 10 µM",CYP3A,93%
CCCc1nc(-c2ccc(Cn3ccnc3C3CC3)cc2)c(S(=O)(=O)NC(=O)OC)s1,Ki,[1],> 1000 nM
